{"source": "patent US9702824B2", "about": "“pH sensors” (PROMEGA CORPORATION, priority 2012, dated 2017)", "key": {"wild-type U2-OS cells": {"system": "wild-type U2-OS cells", "assay": "Toxicity of HaloTag pH sensors, CELLTITER Glo Cell Viability Assay (Example 9)", "format": "cell-based", "settings": "0-10 uM, overnight", "procedure": "U2-OS cells were plated at 10,000 cells/well into wells of 96-well plates and incubated overnight. The next day, 0-10 uM (serially diluted 1:2) PBI-4959, PBI-5004 or PBI-4479 was added to the cells and again incubated overnight. After incubation, the media containing the HaloTag® pH sensors was removed, and 100 ul of fresh media (McCoy's 5A+10% FBS) was added. Cell viability was determined using the CELLTITER Glo Cell Viability Assay according to the manufacturer's protocol (Promega Corporation). Luminescence was read on a GloMAX®-Multi luminometer."}, "[1]": {"system": "U2-OS cells stably expressing HaloTag-NLS", "assay": "pH sensor permeability, pulse and chase with HaloTag Oregon Green (Example 12)", "settings": "2 uM pulse for 10 minutes"}, "[2]": {"system": "U2-OS NLS cells (U2-OS cells stably expressing a HaloTag protein with a nuclear localization sequence)", "assay": "Permeability, pulse with sensor and chase with Oregon Green (Example 4)", "format": "cell-based", "settings": "0-20 uM pulse for 1 hour", "procedure": "Experiments were conducted during development of embodiments of the present invention to determine the permeability and specificity of the pH sensor. U2-OS cells (for specificity) and U2-OS NLS cells (U2-OS cells stably expressing a HaloTag protein with a nuclear localization sequence (NLS); for permeability) were treated with the PBI-4479 sensor. Cells were plated at 40,000 cells/well in 200 ul McCoy's 5A media+10% FBS (“complete media”) onto LTII chamber slides. The cells were then incubated overnight at 37° C., 5% CO2. The cells were then pulsed with PBI-4479 from 0-20 uM for 1 hour. […] Cells were then imaged on an Olympus FV500."}, "[3]": {"assay": "Stability in DMSO by fluorescent emission intensity", "format": "physicochemical", "settings": "for Emission intensity, Ave: average of days 0-110; for Emission intensity: shielded from light, 562 nm, pH 4.0", "procedure": "(§1) PBI-4479 was dissolved to 2 mM in DMSO to approximately 2.33 mg/mL. Aliquots of 350 uL from the 2 mM solution were stored shielded from light at −20° C., 4° C. and room temperature. Stability was established by measuring fluorescent emission intensity and by testing HPLC purity at time 0, 1 day, 1 week, 1 month, 4 months, and 6 months from when the solutions were prepared and stored. For the fluorescence measurements, each aliquot was diluted (1 uL) into 4 mL of 0.1M sodium phosphate pH 4.0 directly into a 4.5 mL plastic cuvette and mixed by inversion of the vial. The maximum emission peak at 562 nm was acquired using a HoribaJobinYvon fluorometer using an excitation of 532 nm with 1.5 nm slit width. For HPLC measurements, each aliquot was diluted to 1 mM in 0.1M sodium phosphate pH 4.0, and 2 uL tested. The purity of each aliquot was tested using an Agilent 1100 liquid chromatography system equipped with a quaternary pump and a diode-array detector. The diode-array detector was set at 254 nm and 532 nm. The elution was performed using a mobile phase (A) containing 0.1% TFA in water, and a mobile phase (B) containing HPLC grade acetonitrile. A Phenomenex Synergi MAX-RP column (50×4.6 mm; 2.6 μm) was used to perform the chromatography. The HPLC was performed as follows: a gradient ran 3% to 60% mobile phase (B) to 3.60 minutes, a hold at 60% mobile phase (B) for 1 minute, a ramp up to 100% mobile phase (B) to 6 minutes, another hold at 100% mobile phase (B) for 2 minutes, and then back to 3% mobile phase (B) for 1.5 minutes. The column was given 2.5 minutes to re-equilibrate back to the starting conditions. In these conditions, the product elutes at approximately 3.7 minutes. Purity (as area percent) of the product was reported at 254 nm and 532 nm."}, "[4]": {"assay": "pH dependence of fluorescence emission", "format": "physicochemical", "procedure": "Experiments were conducted during development of embodiments of the present invention to determine the fluorescence characteristics of exemplary pH sensor agents PBI-4453 and PBI-4479 (SEE FIG. 1). Fluorescence excitation and emission intensities were measured at a range of wavelengths (SEE FIG. 2). […] Fluorescence detection was performed at a range of pH values (SEE FIG. 3)."}, "[5]": {"assay": "Stability in DMSO by HPLC purity", "format": "physicochemical", "settings": "2 mM in DMSO; for HPLC Purity @ 532 nm, Ave: average of days 0-110; for HPLC Purity @ 532 nm: shielded from light", "procedure": "as §1"}}}
{"smiles": "O=C(NCCOCCOCCOCCOCCOCCOCCCCCCCl)c1ccc(C(=O)[O-])c(-c2c3ccc(=[N+]4CCN(CCCCS(=O)(=O)O)CC4)cc-3oc3cc(N4CCN(CCCCS(=O)(=O)O)CC4)ccc23)c1", "note": "[PBI-4479]", "values": [{"measurement": "toxicity (cell viability)", "setting": "wild-type U2-OS cells", "value": "non-toxicity"}, {"measurement": "cell permeability", "setting": "[1]", "value": "non-permeability"}, {"measurement": "cell permeability (labeling of HaloTag-NLS)", "setting": "[2]", "value": "impermeable"}, {"measurement": "degradation by fluorescence intensity", "setting": "[3]; 2 mM DMSO solution stored at room temperature", "value": "slight degradation"}, {"measurement": "Emission intensity, Ave", "setting": "[3]; 2 mM in DMSO, 4° C.", "value": 2096856.0}, {"measurement": "Emission intensity, Ave", "setting": "[3]; 2 mM in DMSO, RT", "value": 2193684.0}, {"measurement": "Emission intensity", "setting": "[3]; 2 mM in DMSO, 4° C., 0 days", "value": 2109020}, {"measurement": "Emission intensity", "setting": "[3]; 2 mM in DMSO, 4° C., 1 day", "value": 2203160}, {"measurement": "Emission intensity", "setting": "[3]; 2 mM in DMSO, 4° C., 7 days", "value": 2055280}, {"measurement": "Emission intensity", "setting": "[3]; 2 mM in DMSO, 4° C., 30 days", "value": 2076310}, {"measurement": "Emission intensity", "setting": "[3]; 2 mM in DMSO, 4° C., 110 days", "value": 2040510}, {"measurement": "Emission intensity", "setting": "[3]; 2 mM in DMSO, RT, 0 days", "value": 2109020}, {"measurement": "Emission intensity", "setting": "[3]; 2 mM in DMSO, RT, 1 day", "value": 2641010}, {"measurement": "Emission intensity", "setting": "[3]; 2 mM in DMSO, RT, 7 days", "value": 2092940}, {"measurement": "Emission intensity", "setting": "[3]; 2 mM in DMSO, RT, 30 days", "value": 2158320}, {"measurement": "Emission intensity", "setting": "[3]; 2 mM in DMSO, RT, 110 days", "value": 1967130}, {"measurement": "Emission intensity", "setting": "[3]; 2 mM in DMSO, −20° C., 0 days", "value": 2109020}, {"measurement": "Emission intensity", "setting": "[3]; 2 mM in DMSO, −20° C., 1 day", "value": 2336260}, {"measurement": "Emission intensity", "setting": "[3]; 2 mM in DMSO, −20° C., 7 days", "value": 2006990}, {"measurement": "Emission intensity", "setting": "[3]; 2 mM in DMSO, −20° C., 30 days", "value": 2191770}, {"measurement": "Emission intensity", "setting": "[3]; 2 mM in DMSO, −20° C., 110 days", "value": 1926570}, {"measurement": "time stable", "setting": "[3]; 2 mM in DMSO, stored below room temperature, by emission intensity and HPLC purity", "value": "at least 180 days"}, {"measurement": "Emission intensity, Ave", "setting": "[3]; 2 mM in DMSO, −20° C.", "value": 2114122.0}, {"measurement": "pH at or below which maximal fluorescence intensity is exhibited", "setting": "[4]", "value": "≤ 3"}, {"measurement": "percent of maximal fluorescence intensity", "setting": "[4]; at pH 8 or higher", "value": "≤ 1", "unit": "%"}, {"measurement": "pKa", "setting": "[4]; from pH dependence of fluorescence", "value": "~6.1"}, {"measurement": "HPLC Purity @ 532 nm, Ave", "setting": "[5]; 4° C.", "value": 93.6, "unit": "area percent"}, {"measurement": "HPLC Purity @ 532 nm, Ave", "setting": "[5]; RT", "value": 92.5, "unit": "area percent"}, {"measurement": "HPLC Purity @ 532 nm", "setting": "[5]; 4° C., 0 days", "value": 91.8, "unit": "area percent"}, {"measurement": "HPLC Purity @ 532 nm", "setting": "[5]; 4° C., 1 day", "value": 92.5, "unit": "area percent"}, {"measurement": "HPLC Purity @ 532 nm", "setting": "[5]; 4° C., 7 days", "value": 93.9, "unit": "area percent"}, {"measurement": "HPLC Purity @ 532 nm", "setting": "[5]; 4° C., 30 days", "value": 95.7, "unit": "area percent"}, {"measurement": "HPLC Purity @ 532 nm", "setting": "[5]; 4° C., 110 days", "value": 93.9, "unit": "area percent"}, {"measurement": "HPLC Purity @ 532 nm", "setting": "[5]; RT, 0 days", "value": 91.8, "unit": "area percent"}, {"measurement": "HPLC Purity @ 532 nm", "setting": "[5]; RT, 1 day", "value": 91.3, "unit": "area percent"}, {"measurement": "HPLC Purity @ 532 nm", "setting": "[5]; RT, 7 days", "value": 92.5, "unit": "area percent"}, {"measurement": "HPLC Purity @ 532 nm", "setting": "[5]; RT, 30 days", "value": 95.1, "unit": "area percent"}, {"measurement": "HPLC Purity @ 532 nm", "setting": "[5]; RT, 110 days", "value": 91.8, "unit": "area percent"}, {"measurement": "HPLC Purity @ 532 nm", "setting": "[5]; −20° C., 0 days", "value": 91.1, "unit": "area percent"}, {"measurement": "HPLC Purity @ 532 nm", "setting": "[5]; −20° C., 1 day", "value": 93.9, "unit": "area percent"}, {"measurement": "HPLC Purity @ 532 nm", "setting": "[5]; −20° C., 7 days", "value": 92.7, "unit": "area percent"}, {"measurement": "HPLC Purity @ 532 nm", "setting": "[5]; −20° C., 30 days", "value": 95.8, "unit": "area percent"}, {"measurement": "HPLC Purity @ 532 nm", "setting": "[5]; −20° C., 110 days", "value": 95.2, "unit": "area percent"}, {"measurement": "HPLC Purity @ 532 nm, Ave", "setting": "[5]; −20° C.", "value": 93.7, "unit": "area percent"}]}
